Assay results as given in US12227513B2, “Salt and crystalline form of furopyrimidine compound and pharmaceutical use thereof” (TIUMBIO CO., LTD., priority 2018, dated 2025).
Where a name gives a salt, the structure may show the parent alone.

Columns and labels:
Assay type in all cases: physicochemical
[1] = Hygroscopicity (weight increase after 1 week at 25° C. and 60% or 90% relative humidity); conditions: weight increase relative to the initial weight
Protocol: Each of the salts (dibesylate salt, dihydrochloride salt, dioxalate salt, sodium salt, potassium salt) prepared in the above examples was left to stand at 25° C. and 60% or 90% relative humidity for 1 week, and a hygroscopicity thereof was measured. Here, the hygroscopicity was measured as a percentage of weight increase, which was measured after the hygroscopicity test, relative to the initial weight.

[2] = Water solubility (distilled water at 25° C., HPLC); conditions: supersaturated solution
Protocol: The water solubility was obtained as follows. Each of the free base and the dibesylate salt was dissolved in distilled water at 25° C. to make it supersaturated. Then, the solution was taken and diluted 20-fold with a diluent for dissolution. Then, the resultant was subjected to high-performance liquid chromatography (HPLC). In the resulting data, the dissolved amount was calculated from a peak area of the main compound.

[3] = Chemical purity after standing at 80° C. (HPLC; lactam-based related substances and main compound); conditions: for Increase in related substances: After 20 hours at 80° C., peak area of lactam-based related substances relative to main compound (HPLC); for Residual amount of main compound: After 21 days at 80° C., HPLC
Protocol: (§1) Each of the salts (dibesylate salt, dihydrochloride salt, sodium salt, potassium salt) prepared in the above examples was left to stand at 80° C. for 20 hours, and then an amount of change in related substances was measured. In addition, each of the salts was left to stand at 80° C. for 21 days, and then a residual amount of the main compound (compound of Formula 1) was measured. For measurement of the related substances and the main compound, samples were taken before and after exposure to 80° C., dissolved in a diluted solution at a concentration of 1 mg/mL, and then subjected to high-performance liquid chromatography (HPLC). From the resulting data, an increase in related substances was calculated by measuring a peak area of lactam-based related substances relative to a peak area of the main compound. In addition, for comparison, the same test was also carried out for the free base of the compound of Formula 1.

[4] = Physical state of the product as obtained (foam, moistening); conditions: observation in words
Description: First, the compound of Formula 1 was not solidified, which posed great difficulty in controlling a residual solvent.

[5] = Evaluation of stability of crystal form (PXRD after drying in vacuo at 50° C.); conditions: after being dried in vacuo at 50° C.
Protocol: The solid product (crystalline form A) obtained in Example 1 was subjected to powder X-ray diffraction (PXRD). The results are shown in FIG. 1 and Table 8 below. • Instrument: Maker Bruker AXS, D8 FOCUS • Conditions: 40 kV, 30 mA, 2θ/θ scan range of 3° to 50°
The solid product (crystalline form A) obtained in Example 1 was dried in vacuo at 50° C., and then subjected to powder X-ray diffraction as described above. The results are illustrated in FIG. 4.
On the other hand, using 1,4-dioxane as a solvent, a solid product (crystalline form B) was obtained in a similar manner as in Example 1, and subjected to powder X-ray diffraction as described above.

[6] = Chemical purity after storage for 3 months at 40° C. and 75% relative humidity (HPLC)
Protocol: as §1
In addition, in a similar manner, the dibesylate salt prepared in the above example was stored for 3 months (at 40° C. and 75% relative humidity), and amounts of change in lactam-based related substances and main compound were measured.

[7] = Stability of drug product (oral capsule, 50° C. and 80% humidity for 3 weeks, HPLC); conditions: 50° C. and 80% relative humidity for 3 weeks
Protocol: Using each of the salts (dibesylate salt, dihydrochloride salt, sodium salt, potassium salt) prepared in the above examples, a drug product was prepared in the form of an oral capsule with the excipient composition as shown in Table 6 below. The drug product was left to stand at 50° C. and 80% humidity for 3 weeks, and then an amount of change in related substances was measured. For measurement of related substances, the contents were separated from the capsule, and then all of them were placed in a diluted solution so that the active ingredient was brought to a concentration of 1 mg/mL. Shaking was performed for 5 minutes. The supernatant was taken and filtered. The filtrate was taken and subjected to high-performance liquid chromatography (HPLC).
From the resulting data, percentages of a peak area of the main compound (active ingredient) and a peak area of the lactam-based related substances were measured. In addition, for comparison, the same test was also carried out for the free base of the compound of Formula 1.

[8] = After 3 months at 40° C. and 75% relative humidity

| SMILES | Hygroscopicity ([1]; 60% RH) [wt %] | Hygroscopicity ([1]; 90% RH) [wt %] | Increase in related substances [3] [%] | Residual amount of main compound [3] [%] | also measured |
| --- | --- | --- | --- | --- | --- |
| O=C(O)CCCN[C@@H](Cn1c(=O)c2c(n(Cc3c(F)cccc3C(F)(F)F)c1=O)COC21CCN(Cc2ccc(C(F)(F)F)o2)CC1)c1ccccc1 [Dioxalate salt] | 3.5 | 19 |  |  |  |
| O=C(O)CCCN[C@@H](Cn1c(=O)c2c(n(Cc3c(F)cccc3C(F)(F)F)c1=O)COC21CCN(Cc2ccc(C(F)(F)F)o2)CC1)c1ccccc1 [Free base, (R)-4-((2-(1-(2-fluoro-6-(trifluoromethyl)benzyl)-2,4-dioxo-1′-((5-(trifluoromethyl)furan-2-yl)methyl)-1H-spiro[furo[3,4-d]pyrimidine-5,4′-piperidine]-3 (2H,4H,7H)-yl)-1-phenylethyl)amino)butanoic acid] |  |  | 79.0 | 1.4 | Water solubility (25° C.) [2]: 0.19 mg/mL; Water solubility (25° C.) ([2]; listed as free base): low water solubility; Increase in related substances ([3]; listed as free base): about 79%; Moistening of the product obtained in the form of a foam [4]: easily moistened and turned into a sticky oil form |
| O=C(O)CCCN[C@@H](Cn1c(=O)c2c(n(Cc3c(F)cccc3C(F)(F)F)c1=O)COC21CCN(Cc2ccc(C(F)(F)F)o2)CC1)c1ccccc1 [diphosphate salt, reference compound] |  |  |  |  | Moistening of the product obtained in the form of a foam [4]: easily moistened and turned into a sticky oil form |
| O=C(O)CCCN[C@@H](Cn1c(=O)c2c(n(Cc3c(F)cccc3C(F)(F)F)c1=O)COC21CCN(Cc2ccc(C(F)(F)F)o2)CC1)c1ccccc1 [Dihydrochloride salt] | 2.1 | 16 | 0.9 | 69.4 |  |
| O=C(O)CCCN[C@@H](Cn1c(=O)c2c(n(Cc3c(F)cccc3C(F)(F)F)c1=O)COC21CCN(Cc2ccc(C(F)(F)F)o2)CC1)c1ccccc1 [Sodium salt] | 8.7 | 35 | 0.6 | 77.0 |  |
| O=C(O)CCCN[C@@H](Cn1c(=O)c2c(n(Cc3c(F)cccc3C(F)(F)F)c1=O)COC21CCN(Cc2ccc(C(F)(F)F)o2)CC1)c1ccccc1 [crystalline form B] |  |  |  |  | Stability of crystal structure (PXRD) [5]: did not maintain some of its initial crystal structure |
| O=C(O)CCCN[C@@H](Cn1c(=O)c2c(n(Cc3c(F)cccc3C(F)(F)F)c1=O)COC21CCN(Cc2ccc(C(F)(F)F)o2)CC1)c1ccccc1 [Potassium salt] | 9.2 | 38 | 0.4 | 72.6 |  |
| O=C(O)CCCN[C@@H](Cn1c(=O)c2c(n(Cc3c(F)cccc3C(F)(F)F)c1=O)COC21CCN(Cc2ccc(C(F)(F)F)o2)CC1)c1ccccc1 [Dibesylate salt] | 0.06 | 0.9 | 0.0 | 99.6 | Water solubility (25° C.) [2]: 25.77 mg/mL; Water solubility (25° C.) ([2]; listed as dibesylate salt): greatly improved water solubility; Chemical purity: Related substances [6, 8]: 0.03%; Chemical purity: main compound (Dibesylate salt) [6, 8]: 99.6%; Chemical purity: Related substances ([6]; Initial): 0.02%; Chemical purity: main compound (Dibesylate salt) ([6]; Initial): 99.7%; Increase in related substances ([3]; listed as dibesylate salt): did not generate any related substances; Hygroscopicity ([1]; 90% RH, listed as dibesylate salt): very low hygroscopicity; Stability of crystal structure (PXRD) ([5]; listed as crystalline form A): maintained the same crystal structure as its initial one; Stability of drug product (in words) [7]: very good stability |
